# Assay results: patent publication US20230192686A1, “1H-PYRROLO[2,3-B]PYRIDINES AND PREPARATION AND USES THEREOF” (BioSplice Therapeutics, Inc., priority 2021, published 2023)
# Target: recombinant DYRK1A kinase (Homo sapiens, UniProt Q13627)
# Assay: DYRK1A kinase assay (Ser/Thr 18 peptide Z-lyte FRET)
# Assay type: biochemical
# Conditions: DYRK1A kinase activity; 15 μM ATP, 4 μM Ser/Thr peptide 18, one hour at room temperature
# Method: Representative compounds were screened using the assay procedure for DYRK1A kinase activity as described below.
# Each compound was dissolved in DMSO as a 10 mM stock and used to prepare compound source plates. Serial dilution (1:3, 11-point dose-response curves from 10 μM to 0.00016 μM) and compound transfer was performed using the ECHO 550 (Labcyte, Sunnyvale, Calif.) into 1536-well black-walled round bottom plates (Corning).
# The DYRK1A kinase assay was run using the Ser/Thr 18 peptide Z-lyte assay kit according to manufacturer's instructions (Life Technologies—a Division of Thermo-Fisher). This is a non-radioactive assay using fluorescence resonance energy transfer (FRET) between coumarin and fluorescein to detect kinase activity which is represented as a ratio of coumarin emission/fluorescein emission.
# Briefly, recombinant DYRK1A kinase, ATP and Ser/Thr peptide 18 were prepared in 1× Kinase buffer to final concentrations of 0.25 μg/mL, 15 μM, and 4 μM respectively. The mixture was allowed to incubate with the representative compounds for one hour at room temperature. All reactions were performed in duplicate. Unphosphorylated (“0% Control”) and phosphorylated (“100% control”) forms of Ser/Thr 18 served as control reactions. Additionally, an 11-point dose-response curve of Staurosporine (1 uM top) was run to serve as a positive compound control.
# After incubation, Development Reagent A was diluted in Development Buffer then added to the reaction and allowed to further incubate for one hour at room temperature. The plate was read at Ex 400 Em 455 to detect the coumarin signal and Ex 400 Em 520 to measure the signal (EnVision Multilabel Plate Reader, PerkinElmer).
# The Emission ratio (Em) was calculated as a ratio of the coumarin (C) emission signal (at 445 nm)/Fluorescein (F) emission signal (at 520 nm). The percent phosphorylation was then calculated using the following formula: [1−((Em ratio×F100%)−C100%)/((C0%−C100%)+(Em ratio×(F100%−F0%)))]. Dose-response curves were generated, and inhibitory concentration (IC50) values were calculated using non-linear regression curve fit in the Dotmatics' Studies Software (Bishops Stortford, UK).
row,SMILES,EC50 [nM]
1,"O=C(NC1CCN(Cc2ccccn2)CC1)c1cnn2ccc(-c3c[nH]c4ncccc34)cc12 [Compound 51, N-(1-(Pyridin-2-ylmethyl)piperidin-4-yl)-5-(1H-pyrrolo[2,3-b]pyridin-3-yl)pyrazolo[1,5-a]pyridine-3-carboxamide]",1
2,"O=C(Nc1cccnc1)c1cnn2ccc(-c3c[nH]c4ncccc34)cc12 [Compound 52, N-(Pyridin-3-yl)-5-(1H-pyrrolo[2,3-b]pyridin-3-yl)pyrazolo[1,5-a]pyridine-3-carboxamide]",2
3,"CN1CCN(C2CCN(C(=O)c3cnn4ccc(-c5c[nH]c6ncccc56)cc34)CC2)CC1 [Compound 54, (5-(1H-Pyrrolo[2,3-b]pyridin-3-yl)pyrazolo[1,5-a]pyridin-3-yl)(4-(4-methylpiperazin-1-yl)piperidin-1-yl)methanone]",18
4,"CN1CCN(C(=O)c2cnn3ccc(-c4c[nH]c5ncccc45)cc23)CC1 [Compound 55, (5-(1H-Pyrrolo[2,3-b]pyridin-3-yl)pyrazolo[1,5-a]pyridin-3-yl)(4-methylpiperazin-1-yl)methanone]",4
5,"CN1CC2CN(C(=O)c3cnn4ccc(-c5c[nH]c6ncccc56)cc34)CC2C1 (stereo not shown) [Compound 64, (5-(1H-Pyrrolo[2,3-b]pyridin-3-yl)pyrazolo[1,5-a]pyridin-3-yl)(5-methylhexahydropyrrolo[3,4-c]pyrrol-2(1H)-yl)methanone]",6
6,"c1cnc2[nH]cc(-c3ccn4nccc4n3)c2c1 [Compound 65, 5-(1H-Pyrrolo[2,3-b]pyridin-3-yl)pyrazolo[1,5-a]pyrimidine]",7
7,"COc1ccc(-c2c[nH]c3ncccc23)cn1 [Compound 67, 3-(6-Methoxypyridin-3-yl)-1H-pyrrolo[2,3-b]pyridine]",19
8,"CN1Cc2cc(-c3c[nH]c4ncccc34)ccc2C1=O [Compound 76, 2-Methyl-5-(1H-pyrrolo[2,3-b]pyridin-3-yl)isoindolin-1-one]",31
9,"c1cnc2[nH]cc(-c3ccc4c(c3)CCCO4)c2c1 [Compound 79, 3-(Chroman-6-yl)-1H-pyrrolo[2,3-b]pyridine]",24
10,"CC1(C)CC(=O)c2ccc(-c3c[nH]c4ncccc34)cc2O1 [Compound 80, 2,2-Dimethyl-7-(1H-pyrrolo[2,3-b]pyridin-3-yl)chroman-4-one]",31
11,"CC1(C)CNC(=O)c2ccc(-c3c[nH]c4ncccc34)cc21 [Compound 82, 4,4-Dimethyl-6-(1H-pyrrolo[2,3-b]pyridin-3-yl)-3,4-dihydroisoquinolin-1(2H)-one]",6
12,"O=C1NCCOc2cc(-c3c[nH]c4ncccc34)ccc21 [Compound 84, 8-(1H-Pyrrolo[2,3-b]pyridin-3-yl)-3,4-dihydrobenzo[f][1,4]oxazepin-5(2H)-one]",3
13,"CN1CCOc2cc(-c3c[nH]c4ncccc34)ccc2C1=O [Compound 85, 4-Methyl-8-(1H-pyrrolo[2,3-b]pyridin-3-yl)-3,4-dihydrobenzo[f] [1,4]oxazepin-5(2H)-one]",25
14,"O=C1NCCOc2c1ccc(-c1c[nH]c3ncccc13)c2F [Compound 86, 9-Fluoro-8-(1H-pyrrolo[2,3-b]pyridin-3-yl)-3,4-dihydrobenzo[f] [1,4]oxazepin-5(2H)-one]",7
15,"O=C(c1ccnc2ccc(-c3c[nH]c4ncccc34)cc12)N1CCNC2(CC2)C1 [Compound 88, (6-(1H-Pyrrolo[2,3-b]pyridin-3-yl)quinolin-4-yl)(4,7-diazaspiro[2.5]octan-7-yl)methanone]",3
16,"c1cnc2[nH]cc(-c3ccc4nccnc4c3)c2c1 [Compound 90, 6-(1H-Pyrrolo[2,3-b]pyridin-3-yl)quinoxaline]",3
17,"CN1CCN(c2ncnc3ccc(-c4c[nH]c5ncccc45)cc23)CC1 [Compound 95, 4-(4-Methylpiperazin-1-yl)-6-(1H-pyrrolo[2,3-b]pyridin-3-yl) quinazoline]",2

# More lines, in order of falling EC50, values ahead:
row,EC50 [nM],SMILES
1,91,"CC1(C)COc2ccc(-c3c[nH]c4ncccc34)cc21 [Compound 72, 3-(3,3-Dimethyl-2,3-dihydrobenzofuran-5-yl)-1H-pyrrolo[2,3-b] pyridine]"
2,81,"CN1CC2CCC(C1)N2C(=O)c1cnn2ccc(-c3c[nH]c4ncccc34)cc12 [Compound 59, (5-(1H-Pyrrolo[2,3-b]pyridin-3-yl)pyrazolo[1,5-a]pyridin-3-yl)(3-methyl-3,8-diazabicyclo[3.2.1]octan-8-yl)methanone]"
3,73,"COc1ccc(-c2c[nH]c3ncccc23)nn1 [Compound 69, 3-(6-Methoxypyridazin-3-yl)-1H-pyrrolo[2,3-b]pyridine]"
4,29,"O=C1CC2(CCNCC2)Oc2cc(-c3c[nH]c4ncccc34)ccc21 [Compound 83, 7-(1H-Pyrrolo[2,3-b]pyridin-3-yl)spiro[chromane-2,4′-piperidin]-4-one]"
5,13,"CN1CCC(Nc2cncc(-c3c[nH]c4ncccc34)n2)CC1 [Compound 70, N-(1-Methylpiperidin-4-yl)-6-(1H-pyrrolo[2,3-b]pyridin-3-yl)pyrazin-2-amine]"
6,12,"CN1C2CCC1CN(C(=O)c1cnn3ccc(-c4c[nH]c5ncccc45)cc13)C2 [Compound 58, (5-(1H-Pyrrolo[2,3-b]pyridin-3-yl)pyrazolo[1,5-a]pyridin-3-yl)(8-methyl-3,8-diazabicyclo[3.2.1]octan-3-yl)methanone]"
7,7,"O=C(c1cnn2ccc(-c3c[nH]c4ncccc34)cc12)N1CCCCC1 [Compound 53, (5-(1H-Pyrrolo[2,3-b]pyridin-3-yl)pyrazolo[1,5-a]pyridin-3-yl) (piperidin-1-yl)methanone]"
8,7,"O=C(c1cnn2ccc(-c3c[nH]c4ncccc34)cc12)N1CCN(C2CC2)CC1 [Compound 56, (5-(1H-Pyrrolo[2,3-b]pyridin-3-yl)pyrazolo[1,5-a]pyridin-3-yl)(4-cyclopropylpiperazin-1-yl)methanone]"
9,6,"O=C(c1cnn2ccc(-c3c[nH]c4ncccc34)cc12)N1CCOCC1 [Compound 60, (5-(1H-Pyrrolo[2,3-b]pyridin-3-yl)pyrazolo[1,5-a]pyridin-3-yl) (morpholino)methanone]"
10,6,"O=C1NC2(CCCCC2)c2cc(-c3c[nH]c4ncccc34)ccc21 [Compound 78, 6′-(1H-Pyrrolo[2,3-b]pyridin-3-yl)spiro[cyclohexane-1,1′-isoindolin]-3′-one]"
11,5,"CN1CC2(C1)CN(C(=O)c1cnn3ccc(-c4c[nH]c5ncccc45)cc13)C2 [Compound 62, (5-(1H-Pyrrolo[2,3-b]pyridin-3-yl)pyrazolo[1,5-a]pyridin-3-yl)(6-methyl-2,6-diazaspiro[3.3]heptan-2-yl)methanone]"
12,5,"O=C(c1cnn2ccc(-c3c[nH]c4ncccc34)cc12)N1CC2CNCC2C1 (stereo not shown) [Compound 63, (5-(1H-Pyrrolo[2,3-b]pyridin-3-yl)pyrazolo[1,5-a]pyridin-3-yl) (hexahydropyrrolo[3,4-c]pyrrol-2(1H)-yl)methanone]"
13,4,"O=C(c1cnn2ccc(-c3c[nH]c4ncccc34)cc12)N1CC2(CNC2)C1 [Compound 61, (5-(1H-Pyrrolo[2,3-b]pyridin-3-yl)pyrazolo[1,5-a]pyridin-3-yl)(2,6-diazaspiro[3.3]heptan-2-yl)methanone]"
14,3,"O=C(c1cnn2ccc(-c3c[nH]c4ncccc34)cc12)N1CCNC2(CC2)C1 [Compound 57, (5-(1H-Pyrrolo[2,3-b]pyridin-3-yl)pyrazolo[1,5-a]pyridin-3-yl)(4,7-diazaspiro[2.5]octan-7-yl)methanone]"
15,3,"CN1CCC(Oc2cnc3ccc(-c4c[nH]c5ncccc45)cc3n2)CC1 [Compound 91, 2-((1-Methylpiperidin-4-yl)oxy)-7-(1H-pyrrolo[2,3-b]pyridin-3-yl) quinoxaline]"
16,2,"c1cnc2ccc(-c3c[nH]c4ncccc34)cc2c1 [Compound 87, 6-(1H-Pyrrolo[2,3-b]pyridin-3-yl)quinoline]"
17,2,"c1cnc2[nH]cc(-c3ccc4ncnc(N5CCNC6(CCC6)C5)c4c3)c2c1 [Compound 97, 6-(1H-Pyrrolo[2,3-b]pyridin-3-yl)-4-(5,8-diazaspiro[3.5]nonan-8-yl) quinazoline]"
18,2,"c1cnc2[nH]cc(-c3ccc4ncnc(N5CCNC6(CCCC6)C5)c4c3)c2c1 [Compound 98, 9-(6-(1H-Pyrrolo[2,3-b]pyridin-3-yl)quinazolin-4-yl)-6,9-diazaspiro [4.5]decane]"
19,1,"CN1CCC(NC(=O)c2ccnc3ccc(-c4c[nH]c5ncccc45)cc23)CC1 [Compound 89, N-(1-Methylpiperidin-4-yl)-6-(1H-pyrrolo[2,3-b]pyridin-3-yl) quinoline-4-carboxamide]"
20,1,"c1cnc2[nH]cc(-c3ccc4ncnc(N5CCNC6(CC6)C5)c4c3)c2c1 [Compound 96, 6-(1H-Pyrrolo[2,3-b]pyridin-3-yl)-4-(4,7-diazaspiro[2.5]octan-7-yl) quinazoline]"
